Measured values reported in ChEMBL document CHEMBL5252632, “Small molecule-based fluorescent probes for the detection of α-Synuclein aggregation states” (Bioorg Med Chem Lett, 2023).

target: Amyloid-beta precursor protein (Homo sapiens, UniProt P05067); experiment: Binding affinity to amyloid beta (1 to 40) (unknown origin) aggregates assessed as dissociation constant
Sequence (P05067 whole entry): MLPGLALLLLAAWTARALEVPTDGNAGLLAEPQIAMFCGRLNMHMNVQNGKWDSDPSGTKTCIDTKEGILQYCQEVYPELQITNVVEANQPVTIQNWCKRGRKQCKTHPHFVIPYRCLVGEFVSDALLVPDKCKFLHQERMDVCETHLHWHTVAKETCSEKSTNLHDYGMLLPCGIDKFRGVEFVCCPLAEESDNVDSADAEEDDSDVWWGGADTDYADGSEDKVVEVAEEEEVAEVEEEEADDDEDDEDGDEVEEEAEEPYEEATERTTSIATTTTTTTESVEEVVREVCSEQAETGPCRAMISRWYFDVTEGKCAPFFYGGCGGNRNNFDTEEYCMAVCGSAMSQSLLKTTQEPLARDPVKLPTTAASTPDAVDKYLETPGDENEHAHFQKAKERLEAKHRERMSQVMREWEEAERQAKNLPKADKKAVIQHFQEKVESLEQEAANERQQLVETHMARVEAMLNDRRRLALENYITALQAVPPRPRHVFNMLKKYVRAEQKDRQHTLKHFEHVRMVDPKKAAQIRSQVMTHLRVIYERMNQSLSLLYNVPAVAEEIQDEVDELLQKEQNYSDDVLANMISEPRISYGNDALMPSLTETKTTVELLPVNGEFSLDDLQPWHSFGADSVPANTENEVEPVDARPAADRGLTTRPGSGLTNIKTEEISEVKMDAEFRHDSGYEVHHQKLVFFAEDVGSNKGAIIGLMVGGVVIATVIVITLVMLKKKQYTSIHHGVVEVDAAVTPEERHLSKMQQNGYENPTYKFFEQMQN

Row | Kd [µM] | Compound
1 | 0.22 | COc1ccc2nc(-c3ccc(N4CCCCCCC4)cc3)sc2c1
2 | 0.22 | COc1ccc2nc(-c3ccc(N4CCCC4)cc3)sc2c1
3 | 0.048 | CN(C)c1ccc2nc(/C=C/C=C/C=C(C#N)C#N)sc2c1
4 | 0.22 | COc1ccc2nc(-c3ccc(N4CCOCC4)cc3)sc2c1
5 | 0.22 | COc1ccc2nc(-c3ccc(N4CCCCC4)cc3)sc2c1
6 | 0.22 | COc1ccc2nc(-c3ccc(N4CCCCCC4)cc3)sc2c1
7 | 0.22 | COc1ccc2nc(-c3ccc(N(C)C)cc3)sc2c1

target: T1, Alpha-synuclein (Homo sapiens, UniProt P37840); experiment: Binding affinity to human recombinant Alpha-synuclein assessed as dissociation constant by fluorometric method

Row | Kd [µM] | Compound
8 | 8.8 | O=S(=O)(O)c1ccc2cc(Nc3ccccc3)ccc2c1
9 | 8.6 | O=S(=O)(O)c1cccc2c(-c3ccc(Nc4ccccc4)c4c(S(=O)(=O)O)cccc34)ccc(Nc3ccccc3)c12

target: T1, Alpha-synuclein; experiment: Binding affinity to C-terminal His6-tagged human Alpha-synuclein fibrils (1 to 97 residues) expressed in Escherichia coli assessed as association constant by chromatography method

Row | Ka [M⁻¹] | Compound
10 | 380000 | OCCOC(=C\C=C1N(c2ccccc2)c2cc3ccccc3cc2N1c1ccccc1)/C=C/c1n(-c2ccccc2)c2cc3ccccc3cc2[n+]1-c1ccccc1

target: T1, Alpha-synuclein; experiment: Binding affinity to Alpha-synuclein (unknown origin) assessed as dissociation constant

Row | Kd [µM] | Compound
11 | 118 | COc1ccc2c(c1)sc(-c1ccc(N3CCCCCCC3)cc1)[n+]2C
12 | 118 | COc1ccc2c(c1)sc(-c1ccc(N(C)C)cc1)[n+]2C
13 | 118 | COc1ccc2c(c1)sc(-c1ccc(N3CCOCC3)cc1)[n+]2C
14 | 118 | COc1ccc2c(c1)sc(-c1ccc(N3CCCCC3)cc1)[n+]2C
15 | 118 | COc1ccc2c(c1)sc(-c1ccc(N3CCCCCC3)cc1)[n+]2C
